Measured values as given in DBAASP.
Converted amounts (≈) assume the structure as drawn. “And” between values parts separate entries of the source, which are not always exact repeats. Identical values can stand only once. Each block holds one molecule with its values, some of them ahead of it.

Key:
Experiment in all cases: ≥ marks a high value that may be exact or a test limit, other limits are often not marked, values filed in µg/mL are converted to µM
Aeromonas salmonicida = tested on: Aeromonas salmonicida
Vibrio anguillarum = tested on: Vibrio anguillarum
[1] = tested on: Pseudomonas aeruginosa ATCC 27853
[2] = tested on: Staphylococcus aureus 2844
[3] = tested on: Pseudomonas aeruginosa 15159
[4] = tested on: Staphylococcus aureus ATCC 29213
[5] = tested on: Staphylococcus aureus FDA 486
Staphylococcus aureus MR = tested on: Staphylococcus aureus MR
[6] = tested on: Staphylococcus aureus ATCC 49476
Candida albicans = tested on: Candida albicans
[7] = tested on: Pseudomonas aeruginosa ATCC 9027
[8] = tested on: Staphylococcus aureus ATCC 25923
[9] = tested on: Escherichia coli ATCC 25922
[10] = tested on: Candida albicans FRR 5580
[11] = tested on: Staphylococcus aureus USA 100
[12] = tested on: Acinetobacter baumannii AB3
[13] = tested on: Pseudomonas aeruginosa TRPA 108
[14] = tested on: Acinetobacter baumannii AB2
[15] = tested on: Staphylococcus aureus USA 300
[16] = tested on: Staphylococcus aureus 4003
[17] = tested on: Pseudomonas aeruginosa PAO1
[18] = tested on: Klebsiella pneumoniae KP4
[19] = tested on: Klebsiella pneumoniae KP2
[20] = tested on: Klebsiella pneumoniae KP1
[21] = tested on: Klebsiella pneumoniae KP3
[22] = tested on: Acinetobacter baumannii AB1
[23] = tested on: Pseudomonas aeruginosa TRPA 111
[24] = tested on: Cryptococcus neoformans ATCC 208821
[25] = tested on: Candida albicans ATCC 90028
[26] = tested on: Klebsiella pneumoniae ATCC 700603
[27] = tested on: Staphylococcus aureus ATCC 43300
[28] = tested on: Acinetobacter baumannii ATCC 19606
[29] = tested on: Escherichia coli NCTC 10418
[30] = tested on: Staphylococcus aureus NCTC 12981
[31] = tested on: Acinetobacter baumannii ATCC BAA-747
[32] = tested on: Enterococcus faecium ATCC 700221
[33] = tested on: Salmonella enterica ATCC 6539

Structure (SMILES): CC[C@H](C)[C@H](NC(=O)[C@H](C)NC(=O)[C@H](CCCCN)NC(=O)CNC(=O)[C@H](C)NC(=O)[C@H](CO)NC(=O)[C@H](Cc1ccccc1)NC(=O)[C@H](CC(C)C)NC(=O)CNC(=O)CNC(=O)[C@@H](NC(=O)[C@@H](NC(=O)[C@H](Cc1cnc[nH]1)NC(=O)[C@@H](N)Cc1cnc[nH]1)[C@@H](C)CC)[C@@H](C)CC)C(=O)N[C@@H](Cc1cnc[nH]1)C(=O)N[C@@H](CCCN=C(N)N)C(=O)N[C@@H](CC(C)C)C(=O)N[C@H](C(=O)N[C@@H](CCCN=C(N)N)C(=O)N[C@@H](CCCN=C(N)N)C(=O)N[C@@H](CCCN=C(N)N)C(=O)N[C@@H](CCCN=C(N)N)C(=O)N[C@@H](CCCN=C(N)N)C(=O)O)[C@@H](C)CC [HHIIGGLFSAGKAIHRLIRRRRR]
MIC (Staphylococcus aureus MR): ≥ 188 µM
MIC [1]: 188 µM (≈ 512 µg/mL)
MIC [6]: ≥ 188 µM
MIC (Candida albicans): 47 µM (≈ 128 µg/mL)

Structure (SMILES): NC(=O)[C@H](CCCN=C(N)N)NC(=O)[C@H](CCCN=C(N)N)NC(=O)[C@H](Cc1c[nH]c2ccccc12)NC(=O)[C@H](Cc1c[nH]c2ccccc12)NC(=O)[C@H](CCCN=C(N)N)NC(=O)[C@H](Cc1c[nH]c2ccccc12)NC(=O)[C@H](Cc1c[nH]c2ccccc12)NC(=O)[C@H](CCCN=C(N)N)NC(=O)[C@H](Cc1c[nH]c2ccccc12)NC(=O)[C@H](CCCN=C(N)N)NC(=O)[C@H](CCCN=C(N)N)NC(=O)[C@H](CCCN=C(N)N)NC(=O)[C@@H](N)CCCN=C(N)N [RRRRWRWWRWWRR]
MIC [7]: 29.1 µM (≈ 64 µg/mL)
MIC [8]: 29.1 µM (≈ 64 µg/mL)
MIC [9]: 29.1 µM (≈ 64 µg/mL)
MIC [10]: ≥ 114 µM

Structure (SMILES): NC(=O)CC[C@H](NC(=O)[C@H](CCCN=C(N)N)NC(=O)[C@H](CCCN=C(N)N)NC(=O)[C@H](CS)NC(=O)[C@H](CCC(N)=O)NC(=O)[C@H](Cc1cnc[nH]1)NC(=O)[C@H](CO)NC(=O)[C@H](CCCN=C(N)N)NC(=O)[C@H](Cc1ccccc1)NC(=O)[C@H](Cc1cnc[nH]1)NC(=O)[C@H](CCCN=C(N)N)NC(=O)[C@H](Cc1cnc[nH]1)NC(=O)[C@H](Cc1cnc[nH]1)NC(=O)[C@@H](N)CO)C(=O)N[C@@H](CCCN=C(N)N)C(=O)N[C@@H](CO)C(=O)N[C@@H](CC(N)=O)C(=O)N[C@@H](CO)C(=O)N[C@@H](CS)C(=O)N[C@@H](CC(=O)O)C(=O)N[C@@H](CCCN=C(N)N)C(=O)O [SHHRHFRSHQCRRQRSNSCDR]
MIC [1]: > 11.9 µM
MIC [24]: 1.49 µM (≈ 4 µg/mL)
MIC [25]: 11.9 µM (≈ 32 µg/mL)
MIC [26]: > 11.9 µM
MIC [27]: > 11.9 µM
MIC [9]: > 11.9 µM
MIC [28]: > 11.9 µM

Structure (SMILES): NCCCC[C@H](NC(=O)[C@H](Cc1c[nH]c2ccccc12)NC(=O)[C@H](CCCCN)NC(=O)[C@@H](N)Cc1c[nH]c2ccccc12)C(=O)N[C@@H](Cc1c[nH]c2ccccc12)C(N)=O [WKWKW]
MIC [29]: ≥ 154 µM
MIC [30]: ≥ 154 µM

Structure (SMILES): NC(=O)[C@H](CCCN=C(N)N)NC(=O)[C@H](CS)NC(=O)[C@H](Cc1ccc(O)cc1)NC(=O)[C@H](Cc1c[nH]c2ccccc12)NC(=O)[C@H](CCCN=C(N)N)NC(=O)[C@@H](N)Cc1c[nH]c2ccccc12 [WRWYCR]
MIC [1]: 33 µM (≈ 31.9 µg/mL)
MIC [31]: ≥ 132 µM
MIC [26]: 66 µM (≈ 63.9 µg/mL)
MIC [27]: 66 µM (≈ 63.9 µg/mL)
MIC [32]: 8 µM (≈ 7.75 µg/mL)
MIC [9]: 17 µM (≈ 16.5 µg/mL)
MIC [33]: 8 µM (≈ 7.75 µg/mL)

Results, then the molecule that gave them:

MIC (Aeromonas salmonicida): ≥ 413 µM
MIC (Vibrio anguillarum): ≥ 413 µM
Structure (SMILES): CC(C)[C@H](NC(=O)[C@H](CCC(=O)O)NC(=O)[C@H](C)N)C(=O)N[C@@H](C)C(=O)N1CCC[C@H]1C(=O)N[C@@H](C)C(=O)N1CCC[C@H]1C(=O)N[C@@H](C)C(=O)N[C@@H](C)C(=O)N[C@@H](C)C(=O)N[C@@H](C)C(=O)N1CCC[C@H]1C(=O)N[C@@H](C)C(=O)N[C@@H](CCCCN)C(=O)N[C@@H](C)C(=O)N1CCC[C@H]1C(=O)N[C@@H](CCCCN)C(=O)N[C@@H](CCCCN)C(=O)N[C@@H](CCCCN)C(=O)N[C@@H](C)C(=O)N[C@@H](C)C(=O)N[C@@H](C)C(=O)N[C@@H](CCCCN)C(=O)N1CCC[C@H]1C(=O)N[C@@H](CCCCN)C(=O)N[C@@H](CCCCN)C(N)=O [AEVAPAPAAAAPAKAPKKKAAAKPKK]

MIC [1]: 10 µM (≈ 22.2 µg/mL)
MIC [2]: 5 µM (≈ 11.1 µg/mL)
MIC [3]: 10 µM (≈ 22.2 µg/mL)
MIC [4]: 10 µM (≈ 22.2 µg/mL)
MIC [5]: 5 µM (≈ 11.1 µg/mL)
Structure (SMILES): CC[C@H](C)[C@H](NC(=O)[C@H](CCCN=C(N)N)NC(=O)[C@H](CCC(N)=O)NC(=O)[C@@H](NC(=O)[C@@H](NC(=O)[C@H](CCCN=C(N)N)NC(=O)[C@H](CCCCN)NC(=O)[C@H](Cc1ccccc1)NC(=O)[C@H](CCC(=O)O)NC(C)=O)[C@@H](C)CC)C(C)C)C(=O)N[C@@H](CCCCN)C(=O)N[C@@H](CC(=O)O)C(=O)N[C@@H](Cc1ccccc1)C(=O)N[C@@H](CC(C)C)C(=O)N[C@@H](CCCN=C(N)N)C(=O)N[C@@H](CC(N)=O)C(=O)N[C@@H](CC(C)C)C(=O)N[C@H](C(N)=O)C(C)C [EFKRIVQRIKDFLRNLV]

MIC [11]: 1.76 µM (≈ 6 µg/mL)
MIC [12]: 1.76 µM (≈ 6 µg/mL)
MIC [13]: 1.18 µM (≈ 4 µg/mL)
MIC [14]: 3.24 µM (≈ 11 µg/mL)
MIC [15]: 1.76 µM and 3.2 µM
MIC [16]: 1.47 µM (≈ 5 µg/mL)
MIC [17]: 1.76 µM and 3.5 µM
MIC [18]: 4.71 µM (≈ 16 µg/mL)
MIC [19]: 9.41 µM (≈ 32 µg/mL)
MIC [20]: 2.94 µM (≈ 10 µg/mL)
MIC [21]: 2.94 µM (≈ 10 µg/mL)
MIC [22]: 1.47 µM (≈ 5 µg/mL)
MIC [23]: 0.882 µM (≈ 3 µg/mL)
Structure (SMILES): CC(C)[C@H](NC(=O)[C@H](Cc1c[nH]c2ccccc12)NC(=O)[C@H](CCCN=C(N)N)NC(=O)[C@H](CCCN=C(N)N)NC(=O)[C@@H](NC(=O)[C@@H](NC(=O)[C@H](CCCN=C(N)N)NC(=O)[C@@H](NC(=O)[C@@H](NC(=O)[C@H](CCCN=C(N)N)NC(=O)[C@H](CCCN=C(N)N)NC(=O)[C@@H](NC(=O)[C@H](Cc1c[nH]c2ccccc12)NC(=O)[C@H](CCCN=C(N)N)NC(=O)[C@H](CCCN=C(N)N)NC(=O)[C@@H](NC(=O)[C@H](CCCN=C(N)N)NC(=O)[C@H](CCCN=C(N)N)NC(=O)[C@@H](NC(=O)[C@H](Cc1c[nH]c2ccccc12)NC(=O)[C@H](CCCN=C(N)N)NC(=O)[C@@H](N)CCCN=C(N)N)C(C)C)C(C)C)C(C)C)C(C)C)C(C)C)C(C)C)C(C)C)C(=O)N[C@@H](CCCN=C(N)N)C(=O)N[C@@H](CCCN=C(N)N)C(=O)O [RRWVRRVRRWVRRVVRVVRRWVRR]
